Results as given in patent publication US20240425478A1, “CYCLOPENTYLPYRAZOLE CDK2 INHIBITORS” (Genentech, Inc., priority 2021, published 2024).
Read-outs that look alike come from different tables or passages of the source.

Tests used:
[1] = target: T1, Cyclin Dependent Kinase 1/Cyclin A2 (CDK1-cycA2) (Homo sapiens, UniProt P06493); assay: CDK1-cycA2 TR-FRET (Lance) enzyme assay; type: biochemical; details: for Ki: Table O, enzymatic assay; for FS CDK1/CDK2: fold selectivity, enzymatic Ki ratio
T1 construct: purchased ProQinase 0134-0054-1
Method in brief: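 TR-FRET (Lance) detection of phospho-4E-BP1 with a europium-labelled antibody after EDTA quench (15 mM final); signal taken as acceptor/donor ratio. Enzyme and compound were pre-incubated 30 min in HEPES pH 7.5 buffer with MgCl2, TCEP, BGG and Brij 35. Ki derived by Morrison fit.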

[2] = target: T2, Cyclin Dependent Kinase 2/Cyclin E1 (CDK2-cycE1) (Homo sapiens, UniProt P24941); assay: CDK2-cycE1 TR-FRET (LANCE) enzyme assay; type: biochemical; details: for FS CDK1/CDK2 / FS CDK4/CDK2: fold selectivity; for increased fold-selectivity CDK4/CDK2 over Comparator C: (+) sign after FS CDK4/CDK2;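 for improvement in potency against CDK2 (Ki) over Comparator C: fold lower CDK2 Ki than comparator c (Ki 0.032 µM)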
T2 construct: purchased ProQinase 0050-0055-1
Method in brief: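 Kinase reaction buffer: 50 mM HEPES pH 7.5, 10 mM MgCl2, 2 mM TCEP, 0.05% BGG, 0.01% Brij 35, with 30 min compound–enzyme pre-incubation.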

[3] = target: T3, Cyclin Dependent Kinase 4/Cyclin D3 (CDK4-cycD3) (Homo sapiens, UniProt P11802); assay: CDK4-cycD3 TR-FRET (LANCE) enzyme assay; type: biochemical; details: for Ki: Table O, enzymatic assay; for FS CDK4/CDK2: fold selectivity, enzymatic Ki ratio
T3 construct: purchased Carna Biosciences 04-105
Method in brief: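 Compound dose responses pre-incubated 30 min with enzyme mix in 50 mM HEPES pH 7.5, 10 mM MgCl2, 2 mM TCEP, 0.05% BGG, 0.01% Brij 35. Reaction quenched with EDTA (15 mM final); Eu-anti-phospho-4E-BP1 TR-FRET detection, acceptor/donor ratio. Ki derived by Morrison equation.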

[4] = system: OVISE (JCRB1043, CCNE1-amplified); assay: OVISE EdU incorporation cell proliferation assay (CDK2-dependent); type: cell-based; details: for IC50: cellular assay, read-out: CDK2 OVISE IC50; for FS SKOV-3/OVISE / FS p-H3/OVISE: fold selectivity; for FS p-H3/OVISE: cellular p-H3 IC50 over OVISE IC50; for increased fold-selectivity SKOV-3/OVISE over Comparator C: (+) sign after FS SKOV-3/OVISE; for improvement in CDK2 OVISE cell potency over Comparator C: Comparator C 5.5 μM
Method in brief: (§1)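 EdU incorporation (0.5 μM final, last 8 h) follows a 16 h compound exposure at 37 °C, 5% CO2 in RPMI plus 10% FBS, 0.5% DMSO. After fixation, imaging scores EdU-positive cells; a 4-parameter logistic fit of that fraction gives IC50.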

SKOV-3 (ATCC HTB-77) = assay: SKOV-3 EdU incorporation cell proliferation assay (CDK4/6-dependent); type: cell-based; details: for IC50: Homo sapiens, cellular assay, read-out: CDK4/6 SKOV-3 IC50; for FS SKOV-3/OVISE: fold selectivity, cellular IC50 ratio
Method in brief: as §1

HCT116 cells = assay: p-H3 HCT-116 mitotic release cell proliferation assay (cellular CDK1); type: cell-based; details: Homo sapiens, HCT-116; Table O, cellular assay; read-out: CDK1 p-H3 IC50
Procedure: Inhibition of cellular CDK1 determined by release of cells from nocodazole-induced mitotic arrest, as measured by decrease in phospho-Histone H3. Histone H3 (Ser 10) level is detected in cell lysates by producing a Fluorescence Resonance Energy Transfer (FRET) signal between two antibodies, Phospho-Histone H3 Cryptate (acting as the donor) and Phospho-Histone H3 d2 (acting as the acceptor).
Plates are allowed to rest overnight at 37° C./5% CO2. The following morning, nocodazole is diluted in complete medium, and 5 μL is added to each test well and positive control well for a final concentration of 500 nM. Plates are then incubated for 16 hours at 37° C./5% CO2. […] 10 μL of diluted compound is then transferred to the cell plate (final DMSO concentration 0.1%). Cell plates are then incubated for 4 hours in 37° C. 5% CO2. A cell lysis buffer is prepared on ice using reagents from the Phospho-Histone H3 (Ser10) cellular kit (Cisbio-64HH3PEG). Supernatant is discarded from the cell plate and 80 μL of the supplemented cell lysis buffer (1:99 dilution of the Blocking Reagent and the 1× cell lysis buffer provided in the kit) is added to each of the experimental wells. The cell lysis reaction is allowed to proceed at room temperature while shaking vigorously for 30 minutes. The 384-well HTRF (Homogeneous Time Resolved Fluorescence) plate is prepared by adding 2 μL of each diluted antibody (Phospho-Histone H3 Cryptate antibody and Phospho-Histone H3 d2 antibody diluted 19:1 in a detection buffer) and 12 μL of the supplemented cell lysis buffer to each well in the HTRF plate. 4 μL of the cell lysate is added to the prepared HTRF plate which is then sealed and the reaction is allowed to proceed for a minimum of 2 hours at room temperature.

[5] = Table O, enzymatic assay, read-out: CDK2 Ki
[6] = Table O, enzymatic CDK1 Ki over CDK2 Ki
[7] = Table O, enzymatic CDK4 Ki over CDK2 Ki
[8] = Table Q, enzymatic assay, read-out: CDK2 Ki
[9] = read-out: CDK2 activity / potency (enzymatic assay)
[10] = Table O, cellular SKOV-3 IC50 over OVISE IC50
[11] = Table Q, in brackets after OVISE IC50

T3 sequence (P11802 whole entry): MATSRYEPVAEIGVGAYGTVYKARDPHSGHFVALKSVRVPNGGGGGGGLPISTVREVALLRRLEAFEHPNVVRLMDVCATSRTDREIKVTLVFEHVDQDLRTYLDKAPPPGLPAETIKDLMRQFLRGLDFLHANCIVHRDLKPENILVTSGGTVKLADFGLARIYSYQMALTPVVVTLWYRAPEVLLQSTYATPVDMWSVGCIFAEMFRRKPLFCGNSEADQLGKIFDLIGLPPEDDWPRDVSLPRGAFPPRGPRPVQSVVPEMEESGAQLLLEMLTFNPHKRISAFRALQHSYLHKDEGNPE
T3 sequence (P30281 whole entry partner): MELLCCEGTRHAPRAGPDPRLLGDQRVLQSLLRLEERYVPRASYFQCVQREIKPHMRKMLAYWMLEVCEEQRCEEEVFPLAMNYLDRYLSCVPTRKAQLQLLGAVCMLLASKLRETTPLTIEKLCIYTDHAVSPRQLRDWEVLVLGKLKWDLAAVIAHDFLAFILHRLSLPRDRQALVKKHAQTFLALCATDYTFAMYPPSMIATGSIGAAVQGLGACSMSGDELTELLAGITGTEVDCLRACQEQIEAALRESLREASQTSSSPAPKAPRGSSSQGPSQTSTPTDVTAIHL
T1 sequence (P06493 whole entry): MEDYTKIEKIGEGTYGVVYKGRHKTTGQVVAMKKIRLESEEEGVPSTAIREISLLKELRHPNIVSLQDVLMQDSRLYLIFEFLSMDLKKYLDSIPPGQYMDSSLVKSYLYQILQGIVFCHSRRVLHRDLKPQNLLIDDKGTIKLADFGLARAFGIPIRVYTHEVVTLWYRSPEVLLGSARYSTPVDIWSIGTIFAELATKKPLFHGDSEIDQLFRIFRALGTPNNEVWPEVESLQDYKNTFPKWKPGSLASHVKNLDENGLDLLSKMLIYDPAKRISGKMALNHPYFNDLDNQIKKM
T1 sequence (P20248 whole entry partner): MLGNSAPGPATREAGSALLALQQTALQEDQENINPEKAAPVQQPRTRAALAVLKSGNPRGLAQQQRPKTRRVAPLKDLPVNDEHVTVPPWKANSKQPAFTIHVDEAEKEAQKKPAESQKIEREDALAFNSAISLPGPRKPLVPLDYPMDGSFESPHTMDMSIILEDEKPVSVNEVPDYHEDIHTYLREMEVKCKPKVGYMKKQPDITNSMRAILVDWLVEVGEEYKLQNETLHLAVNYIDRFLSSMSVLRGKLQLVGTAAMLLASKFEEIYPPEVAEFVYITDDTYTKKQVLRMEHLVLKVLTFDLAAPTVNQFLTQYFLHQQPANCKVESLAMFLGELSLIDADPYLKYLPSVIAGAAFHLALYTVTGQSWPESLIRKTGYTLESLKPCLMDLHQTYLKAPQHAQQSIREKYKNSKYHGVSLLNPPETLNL

Structure (SMILES)	Ki [1] [nM]	improvement in potency against CDK2 (Ki) over Comparator C [2] [fold]	Ki [2, 5] [nM]	FS CDK1/CDK2 [2, 6]	FS CDK4/CDK2 [2, 7]	increased fold-selectivity CDK4/CDK2 over Comparator C ([2]; Table Q)	Ki [2, 8] [nM]	FS CDK1/CDK2 ([2]; Table Q, enzymatic)	FS CDK4/CDK2 ([2]; Table Q, enzymatic)	Ki [2, 9] [nM]	Ki [3] [nM]	IC50 ([4]; Table O) [nM]	FS SKOV-3/OVISE [4, 10]	FS p-H3/OVISE ([4]; Table O)	increased fold-selectivity SKOV-3/OVISE over Comparator C ([4]; Table Q)	FS SKOV-3/OVISE ([4]; Table Q, cellular)	improvement in CDK2 OVISE cell potency over Comparator C [4, 11] [fold]	IC50 (SKOV-3 (ATCC HTB-77); SK-OV-3, Table O) [nM]	IC50 (SKOV-3 (ATCC HTB-77); SK-OV-3, Table Q) [nM]	IC50 (HCT116 cells) [nM]	other results
COc1nccc(Nc2cc([C@H]3CC[C@@H](OC(=O)NC(C)C)C3)[nH]n2)n1 [Example 2F, (1R,3S)-3-(3-((2-methoxypyrimidin-4-yl)amino)-1H-pyrazol-5-yl)cyclopenty1 isopropylcarbamate]	11	78	0.41	21	270	(+) (The (+) sign in Table Q signifies desirable increased fold-selectivity of the exemplary compounds over Comparator C)	0.41	21	270	≤ 1	190	65	58	1.3	(+) (The (+) sign in Table Q signifies desirable increased fold-selectivity of the exemplary compounds over Comparator C)	58	84.6	3500	3500	76	
CN1CCN(c2ccc(Nc3cc([C@H]4CC[C@@H](OC(=O)NC56CC(C5)C6)C4)[nH]n3)cn2)CC1 [Example 9H, (1R,3S)-3-(3-((6-(4-methylpiperazin-1-yl)pyridin-3-yl)amino)-1H-pyrazol-5-yl)cyclopentyl bicyclo[1.1.1]pentan-1-ylcarbamate]	30		4.7	6.4	2						9.5	150	1	0.26				150		39	
Cc1cnc(Nc2cc([C@H]3CC[C@@H](OC(=O)NC(C)C)C3)[nH]n2)c(C)n1 [Example 2V, (1R,3S)-3-(3-((3,5-dimethylpyrazin-2-yl)amino)-1H-pyrazol-5-y1)cyclopentyl isopropylcarbamate]	36	35	0.92	39	280	(+) (The (+) sign in Table Q signifies desirable increased fold-selectivity of the exemplary compounds over Comparator C)	0.92	39	280	≤ 1	260	110	23	0.88	(+) (The (+) sign in Table Q signifies desirable increased fold-selectivity of the exemplary compounds over Comparator C)	23	50	2500	2500	97	increased fold-selectivity CDK1/CDK2 over Comparator C ([2]; Table Q, (+) sign after FS CDK1/CDK2): (+) (The (+) sign in Table Q signifies desirable increased fold-selectivity of the exemplary compounds over Comparator C)
Cc1ccncc1Nc1cc([C@H]2CC[C@@H](OC(=O)NC(C)(C)C)C2)[nH]n1 [Example 4A, (1R,3S)-3-(3-((4-methylpyridin-3-yl)amino)-1H-pyrazol-5-yl)cyclopentyl tert-butylcarbamate]	210		2.6	78	170						410	180	71	0.72				9900		93	FS CDK1/CDK2 increased over Comparator D, (+) sign ([1]; Table R): (+); FS CDK1/CDK2 ([1]; Table R): 78; FS CDK1/CDK2 increased over Comparator E, (+) sign ([1]; Table S): (+); FS CDK1/CDK2 ([1]; Table S): 78; Ki ([2]; Table R, enzymatic assay, read-out: CDK2 Ki): 2.6 nM; CDK2 Ki fold change in potency versus Comparator D ([2]; Table R, in brackets after CDK2 Ki): 1 fold; Ki ([2]; Table S, enzymatic assay, read-out: CDK2 Ki): 2.6 nM; CDK2 Ki fold change in potency versus Comparator E ([2]; Table S, in brackets after CDK2 Ki): 0.2 fold; FS CDK4/CDK2 increased over Comparator D, (+) sign ([3]; Table R): (+); FS CDK4/CDK2 ([3]; Table R): 170; FS CDK4/CDK2 increased over Comparator E, (+) sign ([3]; Table S): (+); FS CDK4/CDK2 ([3]; Table S): 170; CDK2 OVISE IC50 fold change in potency versus Comparator D ([4]; Table R, in brackets after OVISE IC50): 21 fold; CDK2 OVISE IC50 fold change in potency versus Comparator E ([4]; Table S, in brackets after OVISE IC50): 0.9 fold; selectivity for CDK2 over CDK4 compared with Comparator E (SKOV-3 (ATCC HTB-77); SKOV-3/OVISE fold-selectivity cellular assay data): increase in selectivity for CDK2 over CDK4; FS SKOV-3/OVISE increased over Comparator D, (+) sign (SKOV-3 (ATCC HTB-77); Table R): (+); FS SKOV-3/OVISE (SKOV-3 (ATCC HTB-77); Table R): 71; FS SKOV-3/OVISE increased over Comparator E, (+) sign (SKOV-3 (ATCC HTB-77); Table S): (+); FS SKOV-3/OVISE (SKOV-3 (ATCC HTB-77); Table S): 71
CNC(=O)c1cnc(Nc2cc([C@H]3CC[C@@H](OC(=O)NC45CC(C4)C5)C3)[nH]n2)c(C)n1 [Example 9E, (1R,3S)-3-(3-((3-methyl-5-(methylcarbamoyl)pyrazin-2-yl)amino)-1H-pyrazol-5-yl)cyclopentyl bicyclo[1.1.1]pentan-1-ylcarbamate]	69		2.1	33	90						190	200	5	1.0				1000		220	
